The text below walks through data of patent publication US20230134760A1, “CAR AND NRF2 DUAL ACTIVATOR AGENTS FOR CYCLOPHOSPHAMIDE-BASED AND DOXORUBICIN-BASED TREATMENTS OF CANCER” (priority 2020, published 2023).

Each structure is given as a SMILES string.

Data set [1] deals with hCAR or Nrf2. Put plainly: all curve and EC50 curve of selected compounds (FIG. 22-35). The data set is classed as cell-based. The conditions noted are these: for Emax: figure legend values. As to the method: Cell lysates were assayed for luciferase activity and normalized against the activity of the Renilla luciferase using a Dual-Luciferase Kit (Promega). […] Compound 2, DL7076, was selected for further evaluation based on its effects in activating hCAR and Nrf2 using the HepG2 cell reporter assay (FIGS. 37a-37c).

Data set [2] deals with BT549 cells. Kind of data set: HPH/BT549 co-culture, CPA cytotoxicity (CCK8). The data set is classed as cell-based. The settings on record: HPH/BT549 coculture, CPA 250, 500, 1000 μM, 48 hours. As for the experimental part:
HPH were cultured in collagen-coated 24 well plates and pre-treated with vehicle control (0.1% DMSO), CITCO (1 μM) or DL7076 (5 μM or 10 μM) for 24 h. […] Following the 24 h pre-treatment, coverslips were combined in hepatocyte seeded wells and exposed to designated concentrations of cyclophosphamide in the presence or absence of DL7076 for various time intervals, as indicated.
H9c2 cells were seeded 0.8×10^5 in 24-well plates. Following cell attachment, a 2 h pre-treatment with vehicle control (0.1% DMSO), SFN (2.5 μM) or DL7076 (1 μM, 5 μM, or 10 μM) was done followed by doxorubicin (2.5 μM) exposure for 22 h. Co-culture cells were assembled and treated with cyclophosphamide and doxorubicin as indicated. A Cell Counting Kit-8 (Enzo) assay was carried out. Cell viability was described as a percent of vehicle control (0.1% DMSO). Cardiomyocyte, human iPSC-derived cardiomyocytes, and BT549 viability was determined with a 1 hr incubation of 6% CCK8 in WEM.

In data set [3] the test system is cleaved caspase-3. Put plainly: Cleaved caspase-3 Western blot in H9c2 cardiomyocytes. Type of data set: cell-based, rat. The conditions noted are these: H9c2, DOX 2.5 μM. An excerpt:
Protein was harvested using cell lysis buffer (Cell Signaling Technology, Danvers, Mass.) with a complete protease inhibitor cocktail (Roche, Mannheim, Germany) prior to homogenizing via sonification. Homogenized protein from treated HPH, H9c2, BT549, and MDA-MB-231 cells were resolved on NuPage Novex Bis-Tris 4-12% gels (Life Technologies) or NuPage Novex Bis-Tris 12% gel and transferred through electrophoresis onto immobilon-P polyvinylidene difluoride (PVDF) membranes. Membranes were blocked with 5% BSA or 5% milk in Tris-Buffer saline with Tween 20 (TBST). Further, membranes were incubated with specific antibodies against human CYP2B6 (1:1000, Abcam), CYP3A4 (1:1000, Millipore Sigma), HO-1 (1:1000, Abcam), cleaved caspase-3 (1:1000 Cell Signaling Technologies), Nrf2 (1:1000, Abcam), TATA-Binding Protein (1:500, Santa Cruz) β-actin (1:3000, Millipore Sigma) at 4° C. overnight. Following overnight incubation, horseradish peroxidase goat anti-mouse or anti-rabbit IgG antibodies were used for secondary incubation. Membranes were developed using SuperSignal West Pico Chemiluminescent Substrate (Thermo Scientific) or Radiance Q (Azure). Two TNBC cell lines, cardiomyocytes, and HPH protein samples were isolated and resolved on a 4-12% or 12% SDS PAGE gel followed by electrophoretic transfer to a PVDF membrane. Membranes were probed 1:1000 for CYP2B6, CYP3A4, Nrf2, cleaved caspase 3, and HO-1 using β-actin (1:3000) or TBP (1:500) as a loading control.

Data set [4] relates to H9c2 cells. Kind of data set: Oxidative stress imaging (DFDA) in H9c2 cells. The settings on record: H9c2, DOX 1, 2.5, 5 μM, 6 hours. Type of data set: cell-based, rat. As to the method:
H9c2 rat cardiomyocytes seeded at 0.8×10^5 in 24-well plates. […] Cells were washed 3× with PBS. Subsequently, 0.5 mL of WEM containing 20 μM 2'-7'-dichlorofluorescein diacetate (DFDA) was added to each well. The cells were incubated at 37° C. and 5% CO2 for 30 min. The oxidation of DFDA to the fluorescent dichlorofluorescein was viewed using fluorescence microscopy (Nikon Eclipse Ti) with a FITC filter at […] and quantified using Brightspot detection for fluorescent detection of triplicate images and normalized to the vehicle control (0.1% DMSO). Cells on coverslips from co-culture experiments were fixed using 4% paraformaldehyde and permealized using Triton-X 100. A primary antibody for mouse anti-phospho-H2AX ([…]) was incubated overnight. Goat anti-mouse IgG Fluor Alexa 488 (1:200) was incubated for 2 hrs. Phosphorylation was calculated through fluorescence intensity all normalized to the vehicle control.

As usually defined, the EC50 is the concentration giving half of the maximal effect.

As to `O=C(N[C@@H]1CCCC[C@H]1N=C=S)c1c(-c2ccc3ccccc3c2)nc2occn12` (stereo in doubt) [DL7096, N-((1R,2R)-2-Isothiocyanatocyclohexyl)-6-(naphthalen-2-yl)imidazo[2,1-b]oxazole-5-carboxamide], in data set [1], a half-maximal effect (EC50) was put at 330 nM and the Emax is reported as 1.1. `O=P1(N(CCCl)CCCl)NCCCO1` (stereo not shown) [CPA, cyclophosphamide]: the “BT549 viability, CPA alone” value in data set [2] is “decreased the viability of the BT549 cells in a concentration-dependent manner”. In data set [1], `O=C(NCCN=C=S)c1c(-c2ccc3ccccc3c2)nc2occn12` [DL7009, N-(2-Isothiocyanatoethyl)-6-(naphthalen-2-yl)imidazo[2,1-b]oxazole-5-carboxamide] displayed an EC50 of 930 nM and an Emax of 1.4.

Consider `O=C(NCC(N=C=S)c1ccccc1)c1c(-c2ccc3ccccc3c2)nc2occn12` (stereo not drawn) [DL7055-2, N-(2-Isothiocyanato-2-phenylethyl)-6-(naphthalen-2-yl)imidazo[2,1-b]oxazole-5-carboxamide], for which, in data set [1], the EC50 was 19000 ± 80 nM and the Emax was found to be 6.2.

In data set [1], `O=C(c1c(-c2ccc3ccccc3c2)nc2occn12)N1CCC(N=C=S)CC1` [DL7077, (4-Isothiocyanatopiperidin-1-yl)(6-(naphthalen-2-yl)imidazo[2,1-b]oxazol-5-yl)methanone] gave an EC50 of 4800 ± 210 nM and an Emax of 1.8. On the same counts, the results for `O=C(NCCCN=C=S)c1c(-c2ccc3ccccc3c2)nc2occn12` [DL7087, N-(3-Isothiocyanatopropyl)-6-(naphthalen-2-yl)imidazo[2,1-b]oxazole-5-carboxamide] are 1100 ± 430 nM and 1.27. In data set [1], `CC(CN=C=S)NC(=O)c1c(-c2ccc3ccccc3c2)nc2occn12` (stereo not drawn) [DL7091, N-(1-Isothiocyanatopropan-2-yl)-6-(naphthalen-2-yl)imidazo[2,1-b]oxazole-5-carboxamide] came in with a concentration for a half-maximal effect (EC50) of 4100 nM and an Emax of 3.6. The matching figures for `CC(CNC(=O)c1c(-c2ccc3ccccc3c2)nc2occn12)N=C=S` (stereo not drawn) [DL7092, N-(2-Isothiocyanatopropyl)-6-(naphthalen-2-yl)imidazo[2,1-b]oxazole-5-carboxamide]: 32000 nM and 6.0. The matching figures for `O=C(NCCCCN=C=S)c1c(-c2ccc3ccccc3c2)nc2occn12` [DL7101, N-(4-Isothiocyanatobutyl)-6-(naphthalen-2-yl)imidazo[2,1-b]oxazole-5-carboxamide]: 420 nM and 1.6. Regarding `COc1cccc2c1C(=O)c1c(O)c3c(c(O)c1C2=O)C[C@@](O)(C(=O)CO)C[C@@H]3O[C@H]1C[C@H](N)[C@H](O)[C@H](C)O1` [DOX, doxorubicin], the “cleaved caspase-3 expression, DOX alone” value in data set [3] is reported as “abundance in the expression of cleaved caspase-3”. Moreover, the “ROS (fluorescence intensity), DOX alone” value in data set [4] is “concentration dependently increases ROS”.
